Data reported in ChEMBL document CHEMBL4765323, “Design, synthesis, and biological evaluation of novel miconazole analogues containing selenium as potent antifungal agents” (Eur J Med Chem, 2020).
In brackets after ≈: the same amount, converted by molar mass.

Key:
Candida albicans [1] = test: Antifungal activity against Candida albicans CPCC400616 measured after 24 hrs by micro-broth dilution assay; assay type: functional
Candida albicans [2] = test: Antifungal activity against Candida albicans ATCC SC5314 measured after 24 hrs by micro-broth dilution assay; assay type: functional
[Candida] zeylanoides = Antifungal activity against Candida zeylanoides CMGCC2.3739 measured after 24 hrs by micro-broth dilution assay; assay type: functional; conditions: Dujonia zeylanoides
Cryptococcus neoformans = test: Antifungal activity against Cryptococcus neoformans CGMCC2.3161 measured after 72 hrs by micro-broth dilution assay; assay type: functional
Pichia kudriavzevii = test: Antifungal activity against Candida krusei AS 2.1045 measured after 24 hrs by micro-broth dilution assay; assay type: functional
Nakaseomyces glabratus = test: Antifungal activity against clinical isolate Candida glabrata measured after 24 hrs by micro-broth dilution assay; assay type: functional
Candida parapsilosis = test: Antifungal activity against Candida parapsilosis ATCC 22019 measured after 24 hrs by micro-broth dilution assay; assay type: functional; conditions: Lodderomyces parapsilosis
Aspergillus fumigatus = test: Antifungal activity against Aspergillus fumigatus CGMCC 3.7795 measured after 72 hrs by micro-broth dilution assay; assay type: functional
Candida albicans [3] = test: Antifungal activity against fluconazole-resistant Candida albicans CaR measured after 24 hrs by micro-broth dilution assay; assay type: functional
Candida albicans [4] = test: Antifungal activity against fluconazole-resistant Candida albicans 17 measured after 24 hrs by micro-broth dilution assay; assay type: functional
Candida albicans [5] = test: Antifungal activity against fluconazole-resistant Candida albicans 632 measured after 24 hrs by micro-broth dilution assay; assay type: functional
Candida albicans [6] = test: Antifungal activity against Candida albicans 901 measured after 24 hrs by micro-broth dilution assay; assay type: functional
Candida albicans [7] = test: Antifungal activity against fluconazole-resistant Candida albicans strain 904 measured after 24 hrs by micro-broth dilution assay; assay type: functional
Candida albicans [8] = test: Inhibition of CYP51 in azole-resistant Candida albicans ATCC […] assessed as ergosterol level at 0.03125 ug/ml incubated for 16 hrs by LC-MS analysis relative to control; design: scale not given: the % may be the effect or the level left; conditions: dose 0.03125 µg/ml
Candida albicans [9] = test: Inhibition of CYP51 in azole-resistant Candida albicans ATCC […] assessed as ergosterol level at 0.125 ug/ml incubated for 16 hrs by LC-MS analysis relative to control; design: scale not given: the % may be the effect or the level left; conditions: dose 0.125 µg/ml
Candida albicans [10] = test: Inhibition of CYP51 in azole-resistant Candida albicans ATCC […] assessed as ergosterol level at 0.5 ug/ml incubated for 16 hrs by LC-MS analysis relative to control; design: scale not given: the % may be the effect or the level left; conditions: dose 0.5 µg/ml
Candida albicans [11] = test: Inhibition of CYP51 in azole-resistant Candida albicans ATCC […] assessed as ergosterol level at 2 ug/ml incubated for 16 hrs by LC-MS analysis relative to control; design: scale not given: the % may be the effect or the level left; conditions: dose 2.0 µg/ml
Candida albicans [12] = test: Inhibition of CYP51 in azole-resistant Candida albicans ATCC […] assessed as Obtusifoliol level at 0.03125 ug/ml incubated for 16 hrs by LC-MS analysis relative to control; design: scale not given: the % may be the effect or the level left; conditions: dose 0.03125 µg/ml
Candida albicans [13] = test: Inhibition of CYP51 in azole-resistant Candida albicans ATCC […] assessed as Obtusifoliol level at 0.125 ug/ml incubated for 16 hrs by LC-MS analysis relative to control; design: scale not given: the % may be the effect or the level left; conditions: dose 0.125 µg/ml
Candida albicans [14] = test: Inhibition of CYP51 in azole-resistant Candida albicans ATCC […] assessed as Obtusifoliol level at 0.5 ug/ml incubated for 16 hrs by LC-MS analysis relative to control; design: scale not given: the % may be the effect or the level left; conditions: dose 0.5 µg/ml
Candida albicans [15] = test: Inhibition of CYP51 in azole-resistant Candida albicans ATCC […] assessed as Obtusifoliol level at 2 ug/ml incubated for 16 hrs by LC-MS analysis relative to control; design: scale not given: the % may be the effect or the level left; conditions: dose 2.0 µg/ml
Candida albicans [16] = test: Inhibition of CYP51 in azole-resistant Candida albicans ATCC […] assessed as Obtusifoliol level at 8 ug/ml incubated for 16 hrs by LC-MS analysis relative to control; design: scale not given: the % may be the effect or the level left; conditions: dose 8.0 µg/ml
Candida albicans [17] = test: Inhibition of CYP51 in azole-resistant Candida albicans ATCC […] assessed as Lanosterol level at 0.03125 ug/ml incubated for 16 hrs by LC-MS analysis relative to control; design: scale not given: the % may be the effect or the level left; conditions: dose 0.03125 µg/ml
Candida albicans [18] = test: Inhibition of CYP51 in azole-resistant Candida albicans ATCC […] assessed as Lanosterol level at 0.125 ug/ml incubated for 16 hrs by LC-MS analysis relative to control; design: scale not given: the % may be the effect or the level left; conditions: dose 0.125 µg/ml
Candida albicans [19] = test: Inhibition of CYP51 in azole-resistant Candida albicans ATCC […] assessed as Lanosterol level at 0.5 ug/ml incubated for 16 hrs by LC-MS analysis relative to control; design: scale not given: the % may be the effect or the level left; conditions: dose 0.5 µg/ml
Candida albicans [20] = test: Inhibition of CYP51 in azole-resistant Candida albicans ATCC […] assessed as Lanosterol level at 2 ug/ml incubated for 16 hrs by LC-MS analysis relative to control; design: scale not given: the % may be the effect or the level left; conditions: dose 2.0 µg/ml
Candida albicans [21] = test: Inhibition of CYP51 in azole-resistant Candida albicans ATCC […] assessed as Lanosterol level at 8 ug/ml incubated for 16 hrs by LC-MS analysis relative to control; design: scale not given: the % may be the effect or the level left; conditions: dose 8.0 µg/ml
Candida albicans [22] = test: Inhibition of CYP51 in azole-resistant Candida albicans ATCC […] assessed as Eburicol level at 0.03125 ug/ml incubated for 16 hrs by LC-MS analysis relative to control; design: scale not given: the % may be the effect or the level left; conditions: dose 0.03125 µg/ml
Candida albicans [23] = test: Inhibition of CYP51 in azole-resistant Candida albicans ATCC […] assessed as Eburicol level at 0.125 ug/ml incubated for 16 hrs by LC-MS analysis relative to control; design: scale not given: the % may be the effect or the level left; conditions: dose 0.125 µg/ml
Candida albicans [24] = test: Inhibition of CYP51 in azole-resistant Candida albicans ATCC […] assessed as Eburicol level at 0.5 ug/ml incubated for 16 hrs by LC-MS analysis relative to control; design: scale not given: the % may be the effect or the level left; conditions: dose 0.5 µg/ml
Candida albicans [25] = test: Inhibition of CYP51 in azole-resistant Candida albicans ATCC […] assessed as Eburicol level at 2 ug/ml incubated for 16 hrs by LC-MS analysis relative to control; design: scale not given: the % may be the effect or the level left; conditions: dose 2.0 µg/ml
Candida albicans [26] = test: Inhibition of CYP51 in azole-resistant Candida albicans ATCC […] assessed as Eburicol level at 8 ug/ml incubated for 16 hrs by LC-MS analysis relative to control; design: scale not given: the % may be the effect or the level left; conditions: dose 8.0 µg/ml
Candida albicans [27] = test: Inhibition of CYP51 in azole-resistant Candida albicans ATCC […] assessed as inhibition of ergosterol biosynthesis by measuring ergosterol content at 8 ug/ml incubated for 16 hrs by LC-MS analysis relative to control; design: scale not given: the % may be the effect or the level left; conditions: dose 8.0 µg/ml

Row | Structure (SMILES) | MIC (Candida albicans [1]) [µg/mL] | MIC (Candida albicans [2]) [µg/mL] | MIC ([Candida] zeylanoides) [µg/mL] | MIC (Cryptococcus neoformans) [µg/mL] | MIC (Pichia kudriavzevii) [µg/mL] | MIC (Nakaseomyces glabratus) [µg/mL] | MIC (Candida parapsilosis) [µg/mL] | MIC (Aspergillus fumigatus) [µg/mL] | MIC (Candida albicans [3]) [µg/mL] | MIC (Candida albicans [4]) [µg/mL] | MIC (Candida albicans [5]) [µg/mL] | MIC (Candida albicans [6]) [µg/mL] | MIC (Candida albicans [7]) [µg/mL] | also measured
1 | COc1cccc(C[Se]C(Cn2ccnc2)c2ccc(Cl)cc2Cl)c1 (stereo not given) | 0.06 (≈ 0.136 µM) | 0.06 (≈ 0.136 µM) | 1 (≈ 2.27 µM) | 0.13 (≈ 0.295 µM) | 1 (≈ 2.27 µM) | 0.25 (≈ 0.568 µM) | 0.13 (≈ 0.295 µM) | 2 (≈ 4.54 µM) | 2 (≈ 4.54 µM) | 4 (≈ 9.09 µM) | 2 (≈ 4.54 µM) | 1 (≈ 2.27 µM) | 1 (≈ 2.27 µM) | 
2 | COc1cc(C[Se]C(Cn2ccnc2)c2ccc(F)cc2F)cc(OC)c1 (stereo not given) | 0.5 (≈ 1.14 µM) | 0.13 (≈ 0.297 µM) | 1 (≈ 2.29 µM) | 8 (≈ 18.3 µM) | 8 (≈ 18.3 µM) | 0.5 (≈ 1.14 µM) | 8 (≈ 18.3 µM) | 8 (≈ 18.3 µM) | 128 (≈ 293 µM) | 8 (≈ 18.3 µM) | 8 (≈ 18.3 µM) | 2 (≈ 4.57 µM) | 4 (≈ 9.15 µM) | 
3 | Fc1ccc(C(Cn2ccnc2)[Se]Cc2ccc(Cl)cc2)c(F)c1 (stereo not given) | 0.5 (≈ 1.21 µM) | 0.03 (≈ 0.0729 µM) | 1 (≈ 2.43 µM) | 0.5 (≈ 1.21 µM) | 0.5 (≈ 1.21 µM) | 1 (≈ 2.43 µM) | 0.13 (≈ 0.316 µM) | 1 (≈ 2.43 µM) | 16 (≈ 38.9 µM) | 8 (≈ 19.4 µM) | 64 (≈ 155 µM) | 8 (≈ 19.4 µM) | 2 (≈ 4.86 µM) | 
4 | Clc1ccc(C[Se]C(Cn2ccnc2)c2ccc(Cl)cc2Cl)cc1 (stereo not given) | 0.06 (≈ 0.135 µM) | 0.03 (≈ 0.0675 µM) | 8 (≈ 18 µM) | 0.25 (≈ 0.562 µM) | 0.5 (≈ 1.12 µM) | 1 (≈ 2.25 µM) | 0.5 (≈ 1.12 µM) | 2 (≈ 4.5 µM) | 16 (≈ 36 µM) | 8 (≈ 18 µM) | 64 (≈ 144 µM) | 8 (≈ 18 µM) | > 128 | 
5 | OC(Cn1cncn1)(Cn1cncn1)c1ccc(F)cc1F [FLUCONAZOLE] | 4 (≈ 13.1 µM) | 1 (≈ 3.27 µM) | 4 (≈ 13.1 µM) | 4 (≈ 13.1 µM) | 32 (≈ 104 µM) | 32 (≈ 104 µM) | 4 (≈ 13.1 µM) | > 128 | > 128 | 128 (≈ 418 µM) | > 128 | > 128 | > 128 | Activity (Candida albicans [8]): 12.2%; Activity (Candida albicans [9]): 8.3%; Activity (Candida albicans [10]): 7.1%; Activity (Candida albicans [11]): 5.2%; Activity (Candida albicans [12]): 1.6%; Activity (Candida albicans [13]): 11.4%; Activity (Candida albicans [14]): 9%; Activity (Candida albicans [15]): 17.7%; Activity (Candida albicans [16]): 9.2%; Activity (Candida albicans [17]): 9.8%; Activity (Candida albicans [18]): 7.2%; Activity (Candida albicans [19]): 9.5%; Activity (Candida albicans [20]): 7.4%; Activity (Candida albicans [21]): 9.4%; Activity (Candida albicans [22]): 2.9%; Activity (Candida albicans [23]): 6.7%; Activity (Candida albicans [24]): 70.6%; Activity (Candida albicans [25]): 75.2%; Activity (Candida albicans [26]): 70.6%; Activity (Candida albicans [27]): 74.8%
